{
  "source": "patent US7563864B2",
  "about": "“Prolyl endopeptidase mediated destruction of T cell epitopes in whole gluten” (Celiac Sprue Research Foundation, priority 2004, dated 2009)",
  "key": {"Trypsin activity assay": {"assay": "Trypsin activity assay", "type": "biochemical", "settings": "standard chromogenic assay; pH 8.2, 25° C.", "method": "Trypsin: 870 μL 46 mM Tris-HCl, 11.5 mM CaCl2, pH 8.1 and 100 μL 10 mM N-α-p-Tosyl-L-Arginine methyl ester (TAME) were mixed and incubated at room temperature for 10′. 5 μL Trypsin (1 mg/ml) were added and the absorption at 247 nm was recorded for 2′, every 10″. Unit definition: One unit hydrolyzes 1 μmol of TAME per min at pH 8.2 and 25° C. Extinction coefficient 0.18 cm^2/μmol at 247 nm. 1 TAME unit=19.2 USP units."}, "Elastase activity assay": {"assay": "Elastase activity assay", "type": "biochemical", "settings": "standard chromogenic assay; pH 8.0, 25° C.", "method": "Elastase: 935 μL 0.1 M Tris (pH 8.0) and 65 μL of Succinyl-Ala3-p-Nitro anilide (4.4 mM in 0.1 M Tris, pH 8.0) were mixed and incubated at room temperature for 10′. 5 μL Elastase (0.2 mg/ml) were added and the absorption at 410 nm was recorded for 2′, every 10″. One unit hydrolyzes 1 μmol of Succinyl-Ala3-p-Nitro anilide per min at pH 8.0 and 25° C. Extinction coefficient 8.8 cm^2/μmol at 410 nm. […]."}, "[1]": {"assay": "Chymotrypsin activity assay", "type": "biochemical", "settings": "standard chromogenic assay; pH 7.8, 25° C.", "method": "Chymotrypsin: 750 μL 80 mM Tris-HCl, 100 mM CaCl2, pH 7.8 and 700 μL 1.07 mM BTEE (in Water/MeOH 1:1) were mixed and incubated at room temperature for 10′. 5 μL Chymotrypsin (1 mg/ml) were added and the absorption at 256 nm was recorded for 2′, every 10″. One unit hydrolyzes 1 μmol of BTEE per min at pH 7.8 and 25° C. Extinction coefficient 0.964 cm^2/μmol at 256 nm. 1 BTEE unit=29.55 USP units."}, "[2]": {"system": "intestinal T cell line 421.1.4", "assay": "T cell proliferation assay, polyclonal T cell line 421.1.4", "type": "cell-based, human", "design": "key: −: no response; Stimulatory index (SI; T + APC + TG2-treated peptide divided by T + APC) of 3-10; ++: SI above 10", "settings": "DQ2+ APC, 5 μM TG2-treated peptide, 3H thymidine incorporation", "source_text": "(§1) T cell assays—The generation of polyclonal gluten-specific T cell lines derived from ex vivo gluten challenged small intestinal biopsy specimens of adult Celiac Sprue patients have been described elsewhere. For this study 14 different intestinal T cell lines derived from 13 DQ2+celiac patients were selected based on two basic criteria; effective recognition of TG2-treated digests of gluten and significant responses to at least two different gluten epitopes (Table 2). The generation of intestinal T cell clones and the epitope specificity of these clones, except TCC 387.3, has been described elsewhere (10). The TCC 387.3 recognizes a TG2-dependent epitope, defined as γ-VI that is contained within residues 62-72 (PQQPFPQQPQQ) of recombinant γ-5 gliadin. The freeze-dried, proteolyzed gluten samples were dissolved in PBS with 2 mM CaCl2 and treated with 150 μg/ml human recombinant TG2 (14) or, in some experiments 200 μg/ml guinea pig transglutaminase (Sigma T-5398), for 2 hours at 37° C. The TG2-treated samples were incubated overnight in triplicates on U-bottomed 96 well plates with 75 000 cells per well of DQ2 homozygous, irradiated (75 Gy) EBV-transformed B-lymphoblastoid cell lines in a volume of 100 μl 15% pooled, inactivated human serum and RPMI1640. After the incubation 50 μl of freshly thawed T cells (1×10^6 cells/ml) were added to each well. The proliferation in the wells was evaluated by ^3H thymidine incorporation from 48-72 hours after the addition of the T cells."}, "[3]": {"system": "intestinal T cell line 422.4.2", "assay": "T cell proliferation assay, polyclonal T cell line 422.4.2", "type": "cell-based, human", "settings": "DQ2+ APC, 5 μM TG2-treated peptide, 3H thymidine incorporation", "source_text": "as §1"}, "[4]": {"system": "intestinal T cell line 432.2.1", "assay": "T cell proliferation assay, polyclonal T cell line 432.2.1", "type": "cell-based, human", "design": "key: −: no response; Stimulatory index (SI; T + APC + TG2-treated peptide divided by T + APC) of 3-10; ++: SI above 10", "settings": "DQ2+ APC, 5 μM TG2-treated peptide, 3H thymidine incorporation", "source_text": "as §1"}, "[5]": {"system": "intestinal T cell line 437.1.1", "assay": "T cell proliferation assay, polyclonal T cell line 437.1.1", "type": "cell-based, human", "design": "key: −: no response; Stimulatory index (SI; T + APC + TG2-treated peptide divided by T + APC) of 3-10; ++: SI above 10", "settings": "DQ2+ APC, 5 μM TG2-treated peptide, 3H thymidine incorporation", "source_text": "as §1"}, "[6]": {"system": "intestinal T cell line 437.1.3", "assay": "T cell proliferation assay, polyclonal T cell line 437.1.3", "type": "cell-based, human", "settings": "DQ2+ APC, 5 μM TG2-treated peptide, 3H thymidine incorporation", "source_text": "as §1"}, "[7]": {"system": "intestinal T cell line 446.1.3", "assay": "T cell proliferation assay, polyclonal T cell line 446.1.3", "type": "cell-based, human", "settings": "DQ2+ APC, 5 μM TG2-treated peptide, 3H thymidine incorporation", "source_text": "as §1"}, "[8]": {"system": "intestinal T cell line 451.1.1", "assay": "T cell proliferation assay, polyclonal T cell line 451.1.1", "type": "cell-based, human", "design": "key: −: no response; Stimulatory index (SI; T + APC + TG2-treated peptide divided by T + APC) of 3-10; ++: SI above 10", "settings": "DQ2+ APC, 5 μM TG2-treated peptide, 3H thymidine incorporation", "source_text": "as §1"}, "[9]": {"system": "intestinal T cell line 461.1.4", "assay": "T cell proliferation assay, polyclonal T cell line 461.1.4", "type": "cell-based, human", "design": "key: −: no response; Stimulatory index (SI; T + APC + TG2-treated peptide divided by T + APC) of 3-10; ++: SI above 10", "settings": "DQ2+ APC, 5 μM TG2-treated peptide, 3H thymidine incorporation", "source_text": "as §1"}, "[10]": {"system": "intestinal T cell line 482.1.4", "assay": "T cell proliferation assay, polyclonal T cell line 482.1.4", "type": "cell-based, human", "design": "key: −: no response; Stimulatory index (SI; T + APC + TG2-treated peptide divided by T + APC) of 3-10; ++: SI above 10", "settings": "DQ2+ APC, 5 μM TG2-treated peptide, 3H thymidine incorporation", "source_text": "as §1"}, "[11]": {"system": "intestinal T cell line 488.3.1", "assay": "T cell proliferation assay, polyclonal T cell line 488.3.1", "type": "cell-based, human", "settings": "DQ2+ APC, 5 μM TG2-treated peptide, 3H thymidine incorporation", "source_text": "as §1"}, "[12]": {"system": "intestinal T cell line 491.1.3", "assay": "T cell proliferation assay, polyclonal T cell line 491.1.3", "type": "cell-based, human", "settings": "DQ2+ APC, 5 μM TG2-treated peptide, 3H thymidine incorporation", "source_text": "as §1"}, "[13]": {"system": "intestinal T cell line 494.1.1", "assay": "T cell proliferation assay, polyclonal T cell line 494.1.1", "type": "cell-based, human", "settings": "DQ2+ APC, 5 μM TG2-treated peptide, 3H thymidine incorporation", "source_text": "as §1"}, "[14]": {"system": "intestinal T cell line 496.1.2", "assay": "T cell proliferation assay, polyclonal T cell line 496.1.2", "type": "cell-based, human", "settings": "DQ2+ APC, 5 μM TG2-treated peptide, 3H thymidine incorporation", "source_text": "as §1"}, "[15]": {"system": "intestinal T cell line 502.1.2", "assay": "T cell proliferation assay, polyclonal T cell line 502.1.2", "type": "cell-based, human", "settings": "DQ2+ APC, 5 μM TG2-treated peptide, 3H thymidine incorporation", "source_text": "as §1"}, "[16]": {"system": "denatured hemoglobin substrate", "assay": "Pepsin activity assay", "type": "biochemical", "settings": "standard chromogenic assay; 37° C.", "method": "Activity assays—Pepsin: 300 μL 2.5% Hemoglobin and 75 μL 0.3 M HCl were mixed and incubated for 10′ at 37° C., then added to 75 μL pepsin solution (0.1 mg/ml in 0.01 M HCl, pH=2.0). The samples were incubated for 0′, 10′ and 20′ at 37° C. (3 samples), and the reaction was stopped by addition of 750 μL 5% Trichloroacetic acid (TCA), and incubated 5′ at 37° C. For the 0′ samples, the TCA was added before the hemoglobin. Samples were centrifuged for 10′ at 13400×g. The absorption was recorded at 280 nm. One unit renders TCA soluble absorption of 0.001 at 280 nm per min at 37° C. from a denatured hemoglobin substrate."}},
  "data": [
    {"substance": "Trypsin", "values": [
      {"measurement": "specific activity", "setting": "Trypsin activity assay", "value": 2000, "unit": "USP/mg"}
    ]},
    {"substance": "Elastase", "values": [
      {"measurement": "specific activity", "setting": "Elastase activity assay", "value": 5, "unit": "U/mg"}
    ]},
    {"substance": "Chymotrypsin", "values": [
      {"measurement": "specific activity", "setting": "[1]", "value": 800, "unit": "USP/mg"}
    ]},
    {"substance": "QLQPFPQPQLPY [α-I]", "values": [
      {"measurement": "Response to TG2-treated gluten peptides (stimulatory index)", "setting": "[2]", "value": "−"},
      {"measurement": "Response to TG2-treated gluten peptides (stimulatory index)", "setting": "[3]", "value": "+ (Stimulatory index (SI; T + APC + TG2-treated peptide divided by T + APC) of 3-10)"},
      {"measurement": "Response to TG2-treated gluten peptides (stimulatory index)", "setting": "[4]", "value": "−"},
      {"measurement": "Response to TG2-treated gluten peptides (stimulatory index)", "setting": "[5]", "value": "−"},
      {"measurement": "Response to TG2-treated gluten peptides (stimulatory index)", "setting": "[6]", "value": "+ (Stimulatory index (SI; T + APC + TG2-treated peptide divided by T + APC) of 3-10)"},
      {"measurement": "Response to TG2-treated gluten peptides (stimulatory index)", "setting": "[7]", "value": "+ (Stimulatory index (SI; T + APC + TG2-treated peptide divided by T + APC) of 3-10)"},
      {"measurement": "Response to TG2-treated gluten peptides (stimulatory index)", "setting": "[8]", "value": "−"},
      {"measurement": "Response to TG2-treated gluten peptides (stimulatory index)", "setting": "[9]", "value": "−"},
      {"measurement": "Response to TG2-treated gluten peptides (stimulatory index)", "setting": "[10]", "value": "−"},
      {"measurement": "Response to TG2-treated gluten peptides (stimulatory index)", "setting": "[11]", "value": "+ (Stimulatory index (SI; T + APC + TG2-treated peptide divided by T + APC) of 3-10)"},
      {"measurement": "Response to TG2-treated gluten peptides (stimulatory index)", "setting": "[12]", "value": "+ (Stimulatory index (SI; T + APC + TG2-treated peptide divided by T + APC) of 3-10)"},
      {"measurement": "Response to TG2-treated gluten peptides (stimulatory index)", "setting": "[13]", "value": "+ (Stimulatory index (SI; T + APC + TG2-treated peptide divided by T + APC) of 3-10)"},
      {"measurement": "Response to TG2-treated gluten peptides (stimulatory index)", "setting": "[14]", "value": "++ (SI above 10)"},
      {"measurement": "Response to TG2-treated gluten peptides (stimulatory index)", "setting": "[15]", "value": "++ (SI above 10)"}
    ]},
    {"substance": "Pepsin", "values": [
      {"measurement": "specific activity", "setting": "[16]", "value": 4000, "unit": "U/mg"}
    ]}
  ]
}
